Experimental data published in patent publication US20250179024A1, “AMYLOID AND ASSOCIATED PATHOLOGY MODULATORS AND METHODS THEREOF” (Jawaharlal Nehru Centre for Advanced Scientific Research, priority 2022, published 2025).

What was measured:
Aβ = target: T1, Aβ (Homo sapiens, UniProt P05067); test: AFM imaging of Aβ samples; conditions: Aβ 10 μM, NMIs 20 μM; FIG. 1C
T1 construct: is a 42 amino acid proteolytic product from the amyloid precursor protein; purchased Invitrogen
Method: AFM imaging was done to understand the morphological characteristics of Aβ and NMI treated samples. The samples from Aβ aggregation inhibition and dissolution studies were used for AFM imaging. 25 μL of sample was drop-casted on freshly cleaved mica substrate. The Aβ samples were allowed to adhere to substrate surface for 15 min, washed with filtered MiliQ water and air dried. The samples were imaged in Scan assist Air mode in Bioscope resolve AFM system (Bruker). The images were processed and analyzed using NanoScope analysis software. […] It has been observed that the oligomers are a highly toxic species compared to Aβ fibrillar aggregates. The ability of NMIs (M3) to inhibit the formation of Aβ oligomers was assessed by dot blot assay. Aβ peptide (10 μM) was incubated with NMIs at 4° C. for 24 h followed by probing with A11 oligomer-specific antibody. […] Native PAGE and western blot analysis was carried out to understand the size distribution of Aβ aggregated species. […] In order to analyse the higher order aggregates not permeable in the gel matrix and the morphological characteristics, Aβ samples were subjected to atomic force microscopy (AFM) imaging.

Aβ oligomers = target: T2, Aβ oligomers (Homo sapiens, UniProt P05067); test: Dot blot assay of Aβ oligomer inhibition (A11 antibody); type: biochemical; conditions: Aβ 10 μM, NMIs 20 μM, 4° C., 24 h
T2 construct: is a 42 amino acid proteolytic product from the amyloid precursor protein; purchased Invitrogen
T2 sequence (P05067 672-713 limits assumed): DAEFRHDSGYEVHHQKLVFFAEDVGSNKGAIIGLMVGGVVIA
Method: Aggregation modulation by toxic Aβ aggregates were assessed and were quantified by dot blot assay. Aβ peptide (10 μM) was dissolved in phosphate buffered saline (PBS, 10 mM, pH 7.4), incubated alone and with NMIs (20 μM) at 37° C. for 48 h. For concentration dependent inhibition, 10 μM Aβ peptide was incubated with 1, 2, 5, 10 and 20 μM of NMIs and incubated. Samples for oligomer inhibition studies were prepared by incubating Aβ alone and with NMIs at 4° C. for 24 and subjected to dot blot analysis. For dissolution studies, Aβ peptide alone was incubated in PBS for 48 h to prepare fibrils and then incubated with NMIs further for 48 h. For dot blot experiment, 5 μL of sample was blotted on activated PVDF (polyvinylidene fluoride) membrane in triplicates and air dried. The membrane was blocked with skimmed milk powder for 1 h at room temperature. The blot paper was washed with tris-buffered saline with 0.01% Tween 20 (TBST) three times for 5 min. Blot paper was treated with fibril specific OC primary antibody (Rabbit, 1:1000 dilution) overnight at 4° C. For oligomers blot A11 anti-oligomer antibody (Rabbit 1:1000) was used. […] Blots were analyzed and quantified by ImageJ software. […] The ability of NMIs (M3) to inhibit the formation of Aβ oligomers was assessed by dot blot assay. […]

Aβ fibrils = target: T3, Aβ fibrils (Homo sapiens, UniProt P05067); test: Dot blot assay of Aβ fibrillar aggregation inhibition (OC antibody); type: biochemical; conditions: Aβ 10 μM, NMIs 20 μM, PBS pH 7.4, 37° C., 48 h
T3 construct: is a 42 amino acid proteolytic product from the amyloid precursor protein; purchased Invitrogen
T3 sequence (P05067 672-713 limits assumed): as above
Method: Aggregation modulation by toxic Aβ aggregates were assessed and were quantified by dot blot assay. Aβ peptide (10 μM) was dissolved in phosphate buffered saline (PBS, 10 mM, pH 7.4), incubated alone and with NMIs (20 μM) at 37° C. for 48 h. For concentration dependent inhibition, 10 μM Aβ peptide was incubated with 1, 2, 5, 10 and 20 μM of NMIs and incubated. Samples for oligomer inhibition studies were prepared by incubating Aβ alone and with NMIs at 4° C. for 24 and subjected to dot blot analysis. For dissolution studies, Aβ peptide alone was incubated in PBS for 48 h to prepare fibrils and then incubated with NMIs further for 48 h. For dot blot experiment, 5 μL of sample was blotted on activated PVDF (polyvinylidene fluoride) membrane in triplicates and air dried. The membrane was blocked with skimmed milk powder for 1 h at room temperature. The blot paper was washed with tris-buffered saline with 0.01% Tween 20 (TBST) three times for 5 min. Blot paper was treated with fibril specific OC primary antibody (Rabbit, 1:1000 dilution) overnight at 4° C. For oligomers blot A11 anti-oligomer antibody (Rabbit 1:1000) was used. Blot was washed thrice with TBST and treated with HRP-conjugated antirabbit secondary antibody (1:5000 dilutions) for 1 h at room temperature. The bolt was washed thrice for 5 min with TBST and developed with ECL reagent (Biorad) and imaged with ChemiDoc BioRad gel documentation system in autoexposure mode. Blots were analyzed and quantified by ImageJ software. The ability of the NMIs, the compounds of the present disclosure M1-M4 to inhibit Aβ aggregation and dissolve the preformed fibrillar aggregates was evaluated by dot blot assay as explained in Example 2 above. Aβ (10 μM) was incubated alone and with NMIs (20 μM) in phosphate buffer saline (PBS, 10 mM and pH 7.4) at 37° C. for 48 h to form Aβ fibrillar aggregates. The samples were blotted and probed with fibril-selective OC antibody (rabbit anti-human amyloid fibrils). […] M3 was further assessed for inhibitory effect at lower concentrations. […] It has been observed that the oligomers are a highly toxic species compared to Aβ fibrillar aggregates. The ability of NMIs (M3) to inhibit the formation of Aβ oligomers was assessed by dot blot assay. Aβ peptide (10 μM) was incubated with NMIs at 4° C. for 24 h followed by probing with A11 oligomer-specific antibody. […] Native PAGE and western blot analysis was carried out to understand the size distribution of Aβ aggregated species. […] In order to analyse the higher order aggregates not permeable in the gel matrix and the morphological characteristics, Aβ samples were subjected to atomic force microscopy (AFM) imaging.

[1] = Metal chelation by UV-visible absorbance and fluorescence spectra; type: physicochemical; conditions: NMIs 20 μM, Cu or Zn 2.5 to 40 μM
Source text: The compounds of the present disclosure (NMIs) were designed to chelate with metals (Cu and Zn) and alleviate the metal-dependent Aβ toxicity. […] The change in absorbance and fluorescence spectra of NMIs were monitored to understand the interaction with Cu(II) and Zn(II). […] The fluorescence intensity of M3 at 525 nm decreased with the increasing concentration of Cu(II) or Zn(II) (FIGS. 6(A & B)).

[2] = target: T4, preformed Aβ fibrillar aggregates (Homo sapiens, UniProt P05067); test: Dot blot assay of dissolution of preformed Aβ fibrillar aggregates; type: biochemical; conditions: Aβ aggregates 10 μM, NMIs 20 μM, 48 h
T4 construct: is a 42 amino acid proteolytic product from the amyloid precursor protein; purchased Invitrogen
T4 sequence (P05067 672-713 limits assumed): as above
Method: Aggregation modulation by toxic Aβ aggregates were assessed and were quantified by dot blot assay. Aβ peptide (10 μM) was dissolved in phosphate buffered saline (PBS, 10 mM, pH 7.4), incubated alone and with NMIs (20 μM) at 37° C. for 48 h. For concentration dependent inhibition, 10 μM Aβ peptide was incubated with 1, 2, 5, 10 and 20 μM of NMIs and incubated. Samples for oligomer inhibition studies were prepared by incubating Aβ alone and with NMIs at 4° C. for 24 and subjected to dot blot analysis. For dissolution studies, Aβ peptide alone was incubated in PBS for 48 h to prepare fibrils and then incubated with NMIs further for 48 h. For dot blot experiment, 5 μL of sample was blotted on activated PVDF (polyvinylidene fluoride) membrane in triplicates and air dried. The membrane was blocked with skimmed milk powder for 1 h at room temperature. The blot paper was washed with tris-buffered saline with 0.01% Tween 20 (TBST) three times for 5 min. Blot paper was treated with fibril specific OC primary antibody (Rabbit, 1:1000 dilution) overnight at 4° C. For oligomers blot A11 anti-oligomer antibody (Rabbit 1:1000) was used. Blot was washed thrice with TBST and treated with HRP-conjugated antirabbit secondary antibody (1:5000 dilutions) for 1 h at room temperature. The bolt was washed thrice for 5 min with TBST and developed with ECL reagent (Biorad) and imaged with ChemiDoc BioRad gel documentation system in autoexposure mode. Blots were analyzed and quantified by ImageJ software. The fibrillar aggregates were formed by incubating Aβ peptide (10 μM) in PBS (pH 7.4) at 37° C. for 48 h. The aggregate samples were treated with NMIs (20 μM) for 48 h followed by dot blot analysis. […] These studies confirmed that M3 as the potential candidate to dissolve Aβ fibrillar aggregates to possibly nontoxic species.

[3] = target: T5, Aβ in the presence of Zn (II) (Homo sapiens, UniProt P05067); test: Zn-dependent Aβ aggregation, native PAGE and western blot; type: biochemical; conditions: Aβ 10 μM, Zn (II) 20 μM, NMIs 20 μM, 37° C., 48 h
T5 construct: is a 42 amino acid proteolytic product from the amyloid precursor protein; purchased Invitrogen
T5 sequence (P05067 672-713 limits assumed): as above
Method: The samples were prepared by incubating Aβ42 with specific concentration of NMI compounds of present disclosure and metal ions for 48 h and then subjected to 6% native polyacrylamide gel electrophoresis (Native-PAGE) in tris-glycine buffer. The lower molecular weight aggregates permeabilized through the gel and resolved in the gel. Higher molecular aggregates stuck in the upper part of wells and potentially carried in gel. Then the protein was transferred to PVDF membrane for 4 h at cold condition maintained using ice cold transfer buffer and immersing the transfer apparatus in ice. Then the blots were continued similar to dot blots.
The absorbance and fluorescence spectroscopy studies together with mass spectrometry data confirmed the selective Cu (II) or Zn (II) chelation property of M1 and M3. […] Aβ (10 μM) was incubated in the presence of Cu (II) or Zn (II) (20 μM) with NMIs at 37° C. for 48 h and the samples were subjected to native PAGE and western blot analysis. […] Modulation of Zn-dependent Aβ aggregation by M4 was attributed to its two Zn (II) chelation centres. M3 with dopamine and DPA moieties effectively modulated both Cu (II) and Zn (II)-dependent Aβ aggregation. The effect of NMIs on the morphological outcome of metal-dependent Aβ aggregation was visualized by AFM imaging (FIGS. 1E and 1F). Aβ in the presence of Cu (II) and Zn (II) formed dense and thick fibrils.

T1 sequence (P05067 672-713 limits assumed): as above

Compound | morphology of Aβ sample, aggregation inhibition (Aβ) | oligomer inhibition (Aβ oligomers) [%] | inhibition of the formation of Aβ fibrils (Aβ fibrils) [%] | interaction with Cu (II) and Zn (II), change in absorbance spectra [1] | dissolution efficiency [2] [%] | Zn-dependent Aβ aggregation [3]
CN(C)c1ccc2c3c(cccc13)C(=O)N(CCN(Cc1ccccn1)Cc1ccccn1)C2=O [M2, 2-(2-(bis(pyridin-2-ylmethyl)amino)ethyl)-6-(dimethylamino)-1H-benzo[de]isoquinoline-1,3(2H)-dione] | fibrillar structures | 40 | ~11 | no significant change in the spectra | 25 | –
O=C1c2cccc3c(N(Cc4ccccn4)Cc4ccccn4)ccc(c23)C(=O)N1CCN(Cc1ccccn1)Cc1ccccn1 [M4, 6-(bis(pyridin-2-ylmethyl)amino)-2-(2-(bis(pyridin-2-ylmethyl)amino)ethyl)-1H-benzo[de]isoquinoline-1,3(2H)-dione] | fibrillar structures | – | ~11 | no significant change in the spectra | 43 | reduce Zn-dependent Aβ aggregation
